# Reference: publication PMC6320956, “O-Aminoalkyl-O-Trimethyl-2,3-Dehydrosilybins: Synthesis and In Vitro Effects Towards Prostate Cancer Cells” (Molecules, 2018)
# Experiments:
# Type in all cases: cell-based, human
# DU145 cells = test: WST-1 cell proliferation assay, DU145; details: for IC50: Homo sapiens, DU-145, 72 h, WST-1, three days of exposure, mean ± SD, n = 3; for IC50 (Silibinin)/IC50(Derivative) DU145: fold potency relative to silibinin
# Protocol: (§1) The in vitro antiproliferative activities of six 7-O-substituted and 26 3-O-substituted silybin derivatives were evaluated using the WST-1 cell proliferation assay, according to the procedure as described in the Experimental Section in both androgen-sensitive (LNCaP) and androgen-insensitive (PC-3 and DU145) human prostate cancer cell lines. Silibinin and docetaxel were used as a positive control for comparison in the parallel experiments and the IC50 values calculated from the dose-response curves are summarized in Table 1. […] A three-carbon linker in 11 and 29, as well as a five-carbon linker in 31, 37 and 40, are beneficial to the potency.
# (§2) All cell lines were initially purchased from American Type Culture Collection (ATCC^TM) (Manassas, VA, USA). The PC-3 and LNCaP prostate cancer cell lines were routinely cultured in RPIM-1640 medium supplemented with 10% FBS and 1% penicillin/streptomycin. The DU145 prostate cancer cells were routinely cultured in Eagle’s Minimum Essential Medium (EMEM) supplemented with 10% FBS and 1% penicillin/streptomycin. Cultures were maintained in a high humidity environment supplemented with 5% carbon dioxide at a temperature of 37 °C.
# (§3) PC-3, DU145, or LNCaP cells were plated in 96-well plates at a density of 3,200 per well in 200 µL of culture medium. The cells were then separately treated with silibinin, or synthesized silibinin derivatives, at five different doses for three days, while equal treatment volumes of DMSO (0.25%) were used as the vehicle control. The cells were cultured in a CO2 incubator at 37 °C for three days. A total of 10 µL of the premixed WST-1 cell proliferation reagent (Clontech) was added to each well. After mixing gently for one min on an orbital shaker, the cells were incubated for an additional 3 h at 37 °C. To ensure a homogeneous distribution of color, it is important to mix gently on an orbital shaker for one min. The absorbance of each well was measured using a microplate reader (Synergy HT, BioTek, Winooski, VT, USA) at a wavelength of 430 nm. […] For calculating the IC50 values, a linear proliferative inhibition was made based on at least five dosages for each compound.
# LNCaP cells = test: WST-1 cell proliferation assay, LNCaP; details: for IC50: Homo sapiens, LNCaP, 72 h, WST-1, three days of exposure, mean ± SD, n = 3; for IC50 (Silibinin)/IC50(Derivative) LNCaP: fold potency relative to silibinin
# Protocol: as §1, §2, §3
# PC-3 cells = test: WST-1 cell proliferation assay, PC-3; details: for IC50: Homo sapiens, PC-3, 72 h, WST-1, three days of exposure, mean ± SD, n = 3; for IC50 (Silibinin)/IC50(Derivative) PC-3: fold potency relative to silibinin
# Protocol: as §1, §2, §3
IC50 (DU145 cells) [µM],IC50 (Silibinin)/IC50(Derivative) DU145 (DU145 cells),IC50 (LNCaP cells) [µM],IC50 (Silibinin)/IC50(Derivative) LNCaP (LNCaP cells),IC50 (PC-3 cells) [µM],IC50 (Silibinin)/IC50(Derivative) PC-3 (PC-3 cells),Structure (SMILES)
18.6 ± 7.67,5,12.8 ± 7.8,3,8.45 ± 2.89,9,COc1cc(OC)c2c(=O)c(OCCCN3CCN(C)CC3)c(-c3ccc4c(c3)OC(c3ccc(OC)c(OC)c3)C(CO)O4)oc2c1 (stereo not drawn) [Compound 44]
0.0012 ± 0.0003,,0.0002 ± 0.0001,,0.0019 ± 0.0006,,"CC(=O)O[C@@]12CO[C@@H]1C[C@H](O)[C@@]1(C)C(=O)[C@H](O)C3=C(C)[C@@H](OC(=O)[C@H](O)[C@@H](NC(=O)OC(C)(C)C)c4ccccc4)C[C@@](O)([C@@H](OC(=O)c4ccccc4)[C@H]21)C3(C)C [Docetaxel, docetaxel, reference compound]"
5.39 ± 0.53,17,4.02 ± 1.55,11,3.77 ± 0.41,19,CCCN(CCC)CCCCOc1c(-c2ccc3c(c2)OC(c2ccc(OC)c(OC)c2)C(CO)O3)oc2cc(OC)cc(OC)c2c1=O (stereo not drawn) [Compound 27]
9.97 ± 3.34,9,5.13 ± 0.89,9,5.15 ± 2.13,14,COc1cc(OC)c2c(=O)c(OCCCCN(C)C)c(-c3ccc4c(c3)OC(c3ccc(OC)c(OC)c3)C(CO)O4)oc2c1 (stereo not drawn) [Compound 21]
7.26 ± 1.12,13,2.28 ± 0.42,19,2.37 ± 0.7,31,COc1cc(OC)c2c(=O)c(OCCCN3CCCCC3)c(-c3ccc4c(c3)OC(c3ccc(OC)c(OC)c3)C(CO)O4)oc2c1 (stereo not drawn) [Compound 35]
48.1 ± 16.3,2,14.4 ± 7.49,3,7.87 ± 1.47,9,COc1cc(OC)c2c(=O)c(OCCCCCN3CCNCC3)c(-c3ccc4c(c3)OC(c3ccc(OC)c(OC)c3)C(CO)O4)oc2c1 (stereo not drawn) [Compound 43]
9.21 ± 0.37,10,3.09 ± 0.15,14,5.16 ± 0.94,14,CCN(CC)CCCOc1c(-c2ccc3c(c2)OC(c2ccc(OC)c(OC)c2)C(CO)O3)oc2cc(OC)cc(OC)c2c1=O (stereo not drawn) [Compound 23]
8.62 ± 0.32,11,7.49 ± 0.16,6,9.92 ± 0.43,7,CCN(CC)CCCOc1cc(OC)c2c(=O)c(OC)c(-c3ccc4c(c3)OC(c3ccc(OC)c(OC)c3)C(CO)O4)oc2c1 (stereo not drawn) [Compound 10]
6.36 ± 0.37,15,2.84 ± 0.22,15,3.49 ± 0.24,21,COc1cc(OC)c2c(=O)c(OCCCCN3CCOCC3)c(-c3ccc4c(c3)OC(c3ccc(OC)c(OC)c3)C(CO)O4)oc2c1 (stereo not drawn) [Compound 39]
32.7 ± 5.32,3,20.7 ± 5.34,2,9.09 ± 1.48,8,"COc1cc(OC)c2c(=O)c(OCCCN(C)C)c(-c3ccc4c(c3)OC(c3ccc(OC)c(OC)c3)C(CO)O4)oc2c1 (stereo not drawn) [Compound 20, 3-O-(N,N-Dimethylamino)propyl-5,7,20-O-trimethyl-2,3-dehydrosilybin]"
19.4 ± 0.88,5,16.4 ± 3.47,3,25.7 ± 3.39,3,COc1ccc(C2Oc3cc(-c4oc5cc(OCCCN6CCN(C)CC6)cc(OC)c5c(=O)c4OC)ccc3OC2CO)cc1OC (stereo not drawn) [Compound 14]
67 ± 13.7,1,27.3 ± 5.42,2,24.1 ± 10.6,3,COc1cc(OC)c2c(=O)c(OCCCCN3CCCCC3)c(-c3ccc4c(c3)OC(c3ccc(OC)c(OC)c3)C(CO)O4)oc2c1 (stereo not drawn) [Compound 36]
19.6 ± 0.47,5,11 ± 0.99,4,25.1 ± 1,3,COc1ccc(C2Oc3cc(-c4oc5cc(OCCCN6CCCC6)cc(OC)c5c(=O)c4OC)ccc3OC2CO)cc1OC (stereo not drawn) [Compound 12]
8.18 ± 0.42,8,5.19 ± 2.08,13,5.76 ± 1.36,11,CCN(CC)CCCCOc1c(-c2ccc3c(c2)OC(c2ccc(OC)c(OC)c2)C(CO)O3)oc2cc(OC)cc(OC)c2c1=O (stereo not drawn) [Compound 24]
14.1 ± 2.79,7,5.89 ± 0.3,7,2.86 ± 0.79,25,COc1cc(OC)c2c(=O)c(OCCCN3CCCC3)c(-c3ccc4c(c3)OC(c3ccc(OC)c(OC)c3)C(CO)O4)oc2c1 (stereo not drawn) [Compound 32]
6.64 ± 0.54,14,6.33 ± 0.34,7,6.41 ± 0.4,11,CCN(CC)CCCCCOc1c(-c2ccc3c(c2)OC(c2ccc(OC)c(OC)c2)C(CO)O3)oc2cc(OC)cc(OC)c2c1=O (stereo not drawn) [Compound 25]
5.78 ± 1.36,16,2.7 ± 0.47,16,3.3 ± 0.86,22,CCCN(CCC)CCCCCOc1c(-c2ccc3c(c2)OC(c2ccc(OC)c(OC)c2)C(CO)O3)oc2cc(OC)cc(OC)c2c1=O (stereo not drawn) [Compound 28]
3.07 ± 0.51,30,3.84 ± 0.51,11,3.77 ± 0.41,19,CCCCN(CCCC)CCCCOc1c(-c2ccc3c(c2)OC(c2ccc(OC)c(OC)c2)C(CO)O3)oc2cc(OC)cc(OC)c2c1=O (stereo not drawn) [Compound 30]
8.39 ± 1.38,11,3.89 ± 0.54,11,2.03 ± 0.69,36,CCCN(CCC)CCCOc1c(-c2ccc3c(c2)OC(c2ccc(OC)c(OC)c2)C(CO)O3)oc2cc(OC)cc(OC)c2c1=O (stereo not drawn) [Compound 26]
6.85 ± 0.77,14,4.58 ± 1.77,10,5.3 ± 0.66,14,COc1cc(OC)c2c(=O)c(OCCCCN3CCNCC3)c(-c3ccc4c(c3)OC(c3ccc(OC)c(OC)c3)C(CO)O4)oc2c1 (stereo not drawn) [Compound 42]
8.13 ± 0.42,11,5.19 ± 2.08,8,5.76 ± 1.36,13,COc1cc(OC)c2c(=O)c(OCCCCCBr)c(-c3ccc4c(c3)OC(c3ccc(OC)c(OC)c3)C(CO)O4)oc2c1 (stereo not drawn) [Compound 19]
45.1 ± 11.5,2,12.7 ± 6.28,3,26.5 ± 1,3,COc1ccc(C2Oc3cc(-c4oc5cc(OCCCN6CCOCC6)cc(OC)c5c(=O)c4OC)ccc3OC2CO)cc1OC (stereo not drawn) [Compound 13]
8.59 ± 2.23,11,5.66 ± 0.44,8,4.72 ± 0.88,15,COc1cc(OC)c2c(=O)c(OCCCCCN3CCN(C)CC3)c(-c3ccc4c(c3)OC(c3ccc(OC)c(OC)c3)C(CO)O4)oc2c1 (stereo not drawn) [Compound 45]
19.8 ± 2.38,5,8.06 ± 1.44,5,7.49 ± 1.98,10,COc1cc(OC)c2c(=O)c(OCCCCN3CCCC3)c(-c3ccc4c(c3)OC(c3ccc(OC)c(OC)c3)C(CO)O4)oc2c1 (stereo not drawn) [Compound 33]
10.6 ± 0.63,9,1.74 ± 0.97,25,2.94 ± 0.13,25,COc1cc(OC)c2c(=O)c(OCCCN3CCOCC3)c(-c3ccc4c(c3)OC(c3ccc(OC)c(OC)c3)C(CO)O4)oc2c1 (stereo not drawn) [Compound 38]
